Laboratory results reported in patent publication US20240299484A1, “DILEUCINE COMPOSITIONS AND METHODS OF USE THEREOF” (Ingenious Ingredients, LP, priority 2023, published 2024).
Marks after values point to notes of the source that are not given here.

How the values were obtained:
Type in all cases: in vivo, Swiss Albino mice
IL-2 = assay: Inflammatory markers: IL-2; conditions: for IL-2 (ng/L): after 28 days of supplementation and exercise, mice, n = 8; for IL-2 Change over control [%]: vs Exercise Control, 28 days
Protocol: (§1) Eight 8-week-old male Swiss Albino mice per experimental group were housed in an animal room at a constant temperature (22±3° C.) and humidity (30%-70%) under a 12:12 h light-dark cycle with standard laboratory diet (Purina 5L79, Rat and Mouse 18% protein; PMI Nutrition International, Brentwood, MO, USA). Distilled water was provided ad libitum. All animal experiments were reviewed and approved by the Institutional Animal Ethical Committee (IAEC) of Radiant Research Services Pvt. Ltd (Bangalore, India). All research was conducted in accordance with the guidelines of the committee for the purpose of control and supervision of experiments on animals (CPCSEA Registration Number-1803/PO/RcBi/S/2015/CPCSEA).
(§2) After one week of acclimation, the animals were randomly divided by body weight into different groups (n=8 per group in each test) for oral treatment once a day, at approximately same time each day (+1 hour), for 28 consecutive days: (1) vehicle control; (2) paraxanthine (3) dileucine; (4) paraxanthine+dileucine; (5) L-arginine; (6) L-arginine+dileucine; (7) L-citrulline; and (8) L-citrulline+dileucine. The dose administered to the mice was calculated using US Food and Drug Administration for human equivalence doses (HED), assuming a human weight of 60 kg. The following HED were used in this study: 2,000 mg dileucine (RAMPS™, Ingenious Ingredients, L.P., Lewisville, TX, USA; mouse 411 mg/kg bw), 100 mg paraxanthine, (ENFINITY™, Ingenious Ingredients, L.P Lewisville, TX, USA; mouse dose: 20.5 mg/kg bw/day); 3,000 mg L-arginine (Nanjing Nutrabuilding Bio-tech Co., LTD., No. 270 Jiqingmen Strect, Suning Huigu, Building E6, Room 2105, Nanjing, China 210017; mouse 616.55 mg/kg bw), 3,000 mg L-citrulline (Nanjing Nutrabuilding Bio-tech Co., LTD., No. 270 Jiqingmen Street, Suning Huigu, Building E6, Room 2105, Nanjing, China 210017; mouse 616.55 mg/kg bw). 0.5% Carboxy Methyl Cellulose sodium was used as vehicle and the test item formulations were prepared daily. Dosing was conducted via oral gavage using disposable polypropylene syringes with sterilized stainless steel gavage tubes. The food intake and water consumption were monitored daily, and BW was recorded weekly. The last dose on day 28 was given 1 hour prior to testing.
(§3) All animals were euthanized by 95% CO2 after 28 days of following their assigned treatment. Blood was collected immediately after euthanization by the retro-orbital route and was immediately centrifuged at 1500×g for 10 min at 4° C. before having all serum transferred into cryogenic tubes and stored at −80° C.
(§4) Serum and plasma samples were separated by centrifuging the blood at 8000 rpm for 10 mins and analyze the below mentioned biomarkers, Biomarkers: TC, TG, LDL and HDL, CRP, Serum lactate, Ammonia, Glucose, NO, IL-2, IL-6, IL-10. Blood was collected in EDTA tubes for below mentioned biomarkers, Immune health Biomarkers (T helper subsets): TH1, TH2, TH17, Tfh, iTreg.

Tfh = assay: Immune health biomarkers (T helper subsets): Tfh; conditions: for Tfh(%) (mg/L): T helper subset in blood after 28 days, mice, n = 8; for Tfh Change over control [%]: vs Exercise Control, 28 days
Protocol: as §1, §2, §4

total cholesterol (TC) = assay: Blood lipids: total cholesterol; conditions: for TC Change over control [%]: vs Exercise Control, 28 days
Protocol: as §1, §2, §3, §4

[1] = Forelimb grip strength test; conditions: for Forelimb grip strength (gf) Day −0: Day −0 (baseline), mice, n = 8; for Forelimb grip strength (gf) Day −28: Day −28, one hour after treatment, oral once a day for 28 days; for Increase strength over Day −0: Day −28 minus Day −0; for Percentage Increase over control (grip strength): increase vs Exercise Control, 28 days
Protocol: as §1, §2
The forelimb grip strength was measured on day 0 and day 28 by using a stainless-steel grill to assess muscle strength (Orchid Scientific & Innovative India Pvt Ltd, India). Grip strength was measured one hour after treatment. Briefly, each mouse was placed on a grill chamber and the steel bar is inverted; grip strength is measured by recording the time each animal holds the steel bar. The maximum time for each trial was six minutes. Each animal performed three independent trials separated by six minutes intervals and the mean of the three trials was calculated.

C-reactive protein (CRP) = assay: Inflammatory markers: CRP; conditions: for CRP (mg/L): after 28 days of supplementation and exercise, mice, n = 8; for CRP Change over control [%]: vs Exercise Control, 28 days
Protocol: as §1, §2, §3, §4

triglycerides (TG) = assay: Blood lipids: triglycerides; conditions: for TG: after 28 days of supplementation, mice, n = 8; for TG Change over control [%]: vs Exercise Control, 28 days
Protocol: as §1, §2, §3, §4

[2] = test system: high-density lipids (HDL); assay: Blood lipids: HDL; conditions: for HDL Change over control [%]: vs Exercise Control, 28 days
Protocol: as §1, §2, §3, §4

[3] = Effect on body weight, 28-day oral supplementation with exercise; conditions: for Body Weight (grams) Day −0: Day −0 (baseline); for Body Weight (grams) Day −0 / Body Weight (grams) Day −28: mice, n = 8; for Weight gain in grams: Day −0 to Day −28, oral once a day; for Body Weight (grams) Day −28: Day −28, oral once a day for 28 days; for Percentage weight loss over control: weight gain vs Exercise Control, 28 days
Protocol: as §1, §2
Individual body weights were recorded at receipt, on the day of randomization, on the first day of treatment before dosing (Day 1) and weekly thereafter. The body weight changes for all the animals were calculated and reported along with the body weight data.

iTreg = assay: Immune health biomarkers (T helper subsets): iTreg; conditions: for iTreg Change over control [%]: vs Exercise Control, 28 days
Protocol: as §1, §2, §4

TH1 = assay: Immune health biomarkers (T helper subsets): TH1; conditions: for TH1(%): T helper subset in blood after 28 days, mice, n = 8; for TH1 Change over control [%]: vs Exercise Control, 28 days
Protocol: (§5) PMI Nutrition International, Brentwood, MO, USA). Distilled water was provided ad libitum. All animal experiments were reviewed and approved by the Institutional Animal Ethical Committee (IAEC) of Radiant Research Services Pvt. Ltd (Bangalore, India). All research was conducted in accordance with the guidelines of the committee for the purpose of control and supervision of experiments on animals (CPCSEA Registration Number-1803/PO/[…]). […] (1) vehicle control; […] (4) paraxanthine+dileucine; […] The dose administered to the mice was calculated using US Food and Drug Administration for human equivalence doses (HED), assuming a human weight of 60 kg. […] Dosing was conducted via oral gavage using disposable polypropylene syringes with sterilized stainless steel gavage tubes. The food intake and water consumption were monitored daily, and BW was recorded weekly. The last dose on day 28 was given 1 hour prior to testing. Serum and plasma samples were separated by centrifuging the blood at 8000 rpm for 10 mins and analyze the below mentioned biomarkers, Biomarkers: TC, TG, LDL and HDL, CRP, Serum lactate, Ammonia, Glucose, NO, IL-2, IL-6, IL-10. Blood was collected in EDTA tubes for below mentioned biomarkers, Immune health Biomarkers (T helper subsets): […]

low-density lipids (LDL) = assay: Blood lipids: LDL; conditions: for LDL: after 28 days of supplementation, mice, n = 8; for LDL Change over control [%]: vs Exercise Control, 28 days
Protocol: as §1, §2, §3, §4

TH2 = assay: Immune health biomarkers (T helper subsets): TH2; conditions: for TH2(%): T helper subset in blood after 28 days, mice, n = 8; for TH2 Change over control [%]: vs Exercise Control, 28 days
Protocol: as §5

[4] = after 28 days of supplementation, mice, n = 8
[5] = T helper subset in blood after 28 days, mice, n = 8

NC(=O)NCCC[C@H](N)C(=O)O [L-Citrulline, L-citrulline]
IL-2 (ng/L) (IL-2): 42.8*** ng/L
IL-2 Change over control [%] (IL-2): 25%
Tfh(%) (mg/L) (Tfh): 40.87*** %
Tfh Change over control [%] (Tfh): 423%
TC [mg/dl] (total cholesterol (TC); [4]): 94.26* mg/dl
TC Change over control [%] (total cholesterol (TC)): −6%
Forelimb grip strength (gf) Day −0 [1]: 97.63 gf
Forelimb grip strength (gf) Day −28 [1]: 138.5*** gf
Increase strength over Day −0 [1]: 40.87 gf
Percentage Increase over control (grip strength) [1]: 45%
CRP (mg/L) (C-reactive protein (CRP)): 0.69*** mg/L
CRP Change over control [%] (C-reactive protein (CRP)): −16%
TG (triglycerides (TG)): 94.58 mg/dL
TG Change over control [%] (triglycerides (TG)): −2%
HDL [2, 4]: 35.63 mg/dL
HDL Change over control [%] [2]: 4%
Body Weight (grams) Day −0 [3]: 22.49 grams
Weight gain in grams [3]: 9.83 grams
Body Weight (grams) Day −28 [3]: 33.01* grams
Percentage weight loss over control [3]: −9%
iTreg(%) (iTreg; [5]): 38.83*** %
iTreg Change over control [%] (iTreg): −29%
TH1(%) (TH1): 59.71*** %
TH1 Change over control [%] (TH1): −36%
LDL (low-density lipids (LDL)): 44.01 mg/dL
LDL Change over control [%] (low-density lipids (LDL)): 1%
TH2(%) (TH2): 38.23*** %
TH2 Change over control [%] (TH2): 234%

N=C(N)NCCC[C@H](N)C(=O)O [L-Arginine, L-arginine]
IL-2 (ng/L) (IL-2): 42.04*** ng/L
IL-2 Change over control [%] (IL-2): 23%
Tfh(%) (mg/L) (Tfh): 44.16*** %
Tfh Change over control [%] (Tfh): 465%
TC (total cholesterol (TC); [4]): 95.43 mg/dL
TC Change over control [%] (total cholesterol (TC)): −5%
Forelimb grip strength (gf) Day −0 [1]: 99.75 gf
Forelimb grip strength (gf) Day −28 [1]: 139.13*** gf
Increase strength over Day −0 [1]: 39.38 gf
Percentage Increase over control (grip strength) [1]: 39%
CRP (mg/L) (C-reactive protein (CRP)): 0.69*** mg/L
CRP Change over control [%] (C-reactive protein (CRP)): −16%
TG (triglycerides (TG)): 94.1 mg/dL
TG Change over control [%] (triglycerides (TG)): −2%
HDL [2, 4]: 35.86 mg/dL
HDL Change over control [%] [2]: 5%
Body Weight (grams) Day −0 [3]: 23 grams
Weight gain in grams [3]: 10.01 grams
Body Weight (grams) Day −28 [3]: 33.01* grams
Percentage weight loss over control [3]: −7%
iTreg(%) (iTreg; [5]): 35.86*** %
iTreg Change over control [%] (iTreg): −34%
TH1(%) (TH1): 53.66*** %
TH1 Change over control [%] (TH1): −43%
LDL (low-density lipids (LDL)): 44.66 mg/dL
LDL Change over control [%] (low-density lipids (LDL)): 3%
TH2(%) (TH2): 40.44*** %
TH2 Change over control [%] (TH2): 252%

CC(C)C[C@H](NC(=O)[C@@H](N)CC(C)C)C(=O)O [Dileucine, L-Leucyl-L-leucine]
IL-2 (ng/L) (IL-2): 46.4*** ng/L
IL-2 Change over control [%] (IL-2): 24%
Tfh(%) (mg/L) (Tfh): 55.72%
Tfh Change over control [%] (Tfh): 613%
TC (total cholesterol (TC); [4]): 93.3 mg/dL
TC Change over control [%] (total cholesterol (TC)): −6%
Forelimb grip strength (gf) Day −0 [1]: 99.25 gf
Forelimb grip strength (gf) Day −28 [1]: 149.0*** gf
Increase strength over Day −0 [1]: 49.75 gf
Percentage Increase over control (grip strength) [1]: 76%
CRP (mg/L) (C-reactive protein (CRP)): 0.63*** mg/L
CRP Change over control [%] (C-reactive protein (CRP)): −18%
TG (triglycerides (TG)): 92.66 mg/dL
TG Change over control [%] (triglycerides (TG)): −3%
HDL [mg/dl] [2, 4]: 37.63* mg/dl
HDL Change over control [%] [2]: 8%
Body Weight (grams) Day −0 [3]: 24.09 grams
Weight gain in grams [3]: 9.14 grams
Body Weight (grams) Day −28 [3]: 33.23* grams
Percentage weight loss over control [3]: −15%
iTreg(%) (mg/L) (iTreg; [5]): 18.68*** %
iTreg Change over control [%] (iTreg): −66%
TH1(%) (TH1): 58.86*** %
TH1 Change over control [%] (TH1): −37%
LDL (low-density lipids (LDL)): 42.05 mg/dL
LDL Change over control [%] (low-density lipids (LDL)): −3%
TH2(%) (TH2): 53.68*** %
TH2 Change over control [%] (TH2): 368%
